Data on 29 compounds can be found in patent US10273248B2, “Glucose uptake inhibitors” (Kadmon Corporation LLC, priority 2015, dated 2019).

Molecules are shown by their SMILES. Structures can show the parent of a compound that is named as a salt. Some results are limits rather than exact numbers.

A word on the IC50: it is the concentration at which inhibition is half-maximal.

The test has as its system glycolysis in HT1080 cells. Nature of the test: Glycolysis assay: oligomycin plus compound, cellular ATP by Cell Titer Glo. The format is cell-based. The conditions noted are these: Homo sapiens, HT-1080, 1 h, 10 μM oligomycin, one hour, class symbols. The text has this:
Therefore, an assay was developed that utilizes the combination of the glucose uptake inhibitors disclosed herein with oligomycin, a well-characterized inhibitor of ATP synthase. Because oligomycin inhibits ATP derived from oxidative phosphorylation, any remaining ATP production is derived from glycolysis. By reading out cellular ATP levels using the Promega Cell Titer Glo kit, the extent of glycolysis inhibition by the glucose uptake inhibitors disclosed herein can be assessed. […] Utilizing this experimental set-up, the IC50 of glycolysis inhibition for each compound can be determined.
Determination of Glucose Uptake/GLUT Activity (Glycolysis Assay):
HT1080 cells (as well as other cell types) were plated to confluency in 96-well plates. Cells were exposed to the combination of 10 μM Oligomycin (to block mitochondrial-derived ATP) and the glucose uptake inhibitors disclosed herein for one-hour, after which glycolytically-derived ATP was measured with the Cell Titer-Glo assay kit (Promega). Dose-response curves of the glucose uptake inhibitors disclosed herein were used to determine the IC50 for GLUT activity.
A general note: In ATP-based viability assays light output follows the ATP content of the culture.
Regarding `CC(C)NC(=O)COc1cccc(-c2nc(Nc3ccc(-c4cn[nH]c4)cc3)c3cccnc3n2)c1` [Example 52, 2-(3-(4-((4-(1H-pyrazol-4-yl)phenyl)amino)pyrido[2,3-d]pyrimidin-2-yl)phenoxy)-N-isopropylacetamide], the IC50 lay within 501 to 1000 nM.

`CC(C)CNC(=O)COc1cccc(-c2nc(Nc3ccc(-c4cn[nH]c4)cc3)c3ncccc3n2)c1` [Example 53, 2-(3-(4-((4-(1H-pyrazol-4-yl)phenyl)amino)pyrido[3,2-d]pyrimidin-2-yl)phenoxy)-N-isobutylacetamide]: the IC50 was in the range of 101 to 250 nM.

In the case of `Cn1ncc2c(Nc3ccc(-c4cn[nH]c4)cc3)nc(-c3cccc(OCC(=O)NC4CCC4)c3)nc21` [Example 54, 2-(3-(4-((4-(1H-pyrazol-4-yl)phenyl)amino)-1-methyl-1H-pyrazolo[3,4-d]pyrimidin-6-yl)phenoxy)-N-cyclobutylacetamide], the IC50 was 251 to 500 nM.

Take `CC(C)NC(=O)COc1cccc(-c2nc(Nc3ccc(-c4cn[nH]c4)cc3)c3cnn(C)c3n2)c1` [Example 55, 2-(3-(4-((4-(1H-pyrazol-4-yl)phenyl)amino)-1-methyl-1H-pyrazolo[3,4-d]pyrimidin-6-yl)phenoxy)-N-isopropylacetamide]: the IC50 lay in the range of 251 to 500 nM.

As for `Cn1ncc2c(Nc3ccc(-c4cn[nH]c4)cc3)nc(-c3cccc(OCC(=O)NC4CCCC4)c3)nc21` [Example 56, 2-(3-(4-((4-(1H-pyrazol-4-yl)phenyl)amino)-1-methyl-1H-pyrazolo[3,4-d]pyrimidin-6-yl)phenoxy)-N-cyclopentylacetamide], the 50% inhibitory concentration (IC50) was 101 to 250 nM.

As for `CC(C)CNC(=O)COc1cccc(-c2nc(Nc3ccc(-c4cn[nH]c4)cc3)c3cnn(C)c3n2)c1` [Example 57, 2-(3-(4-((4-(1H-pyrazol-4-yl)phenyl)amino)-1-methyl-1H-pyrazolo[3,4-d]pyrimidin-6-yl)phenoxy)-N-isobutylacetamide], the IC50 lay within 101 to 250 nM.

Turning to `CC(C)NC(=O)COc1cccc(-c2nc(Nc3ccc(-c4cn[nH]c4)cc3)c3c(cnn3C)n2)c1` [Example 58, 2-(3-(7-((4-(1H-pyrazol-4-yl)phenyl)amino)-1-methyl-1H-pyrazolo[4,3-d]pyrimidin-5-yl)phenoxy)-N-isopropylacetamide], the concentration for half-maximal inhibition (IC50) was more than 1000 nM.

As for `Cn1ncc2nc(-c3cccc(OCC(=O)NC4CCC4)c3)nc(Nc3ccc(-c4cn[nH]c4)cc3)c21` [Example 59, 2-(3-(7-((4-(1H-pyrazol-4-yl)phenyl)amino)-1-methyl-1H-pyrazolo[4,3-d]pyrimidin-5-yl)phenoxy)-N-cyclobutylacetamide], the 50% inhibitory concentration (IC50) is more than 1000 nM.

For the compound `Cn1ncc2nc(-c3cccc(OCC(=O)NC4CCCC4)c3)nc(Nc3ccc(-c4cn[nH]c4)cc3)c21` [Example 60, 2-(3-(7-((4-(1H-pyrazol-4-yl)phenyl)amino)-1-methyl-1H-pyrazolo[4,3-d]pyrimidin-5-yl)phenoxy)-N-cyclopentylacetamide], the IC50 lay in the range of 501 to 1000 nM.

For `CC(C)CNC(=O)COc1cccc(-c2nc(Nc3ccc(-c4cn[nH]c4)cc3)c3c(cnn3C)n2)c1` [Example 61, 2-(3-(7-((4-(1H-pyrazol-4-yl)phenyl)amino)-1-methyl-1H-pyrazolo[4,3-d]pyrimidin-5-yl)phenoxy)-N-isobutylacetamide], the IC50 is more than 1000 nM.

Regarding `CC(C)NC(=O)COc1cccc(-c2nc(Nc3ccc(-c4cn[nH]c4)cc3)c3ccncc3n2)c1` [Example 62, 2-(3-(4-((4-(1H-pyrazol-4-yl)phenyl)amino)pyrido[3,4-d]pyrimidin-2-yl)phenoxy)-N-isopropylacetamide], the IC50 was 10 to 100 nM.

For the compound `O=C(COc1cccc(-c2nc(Nc3ccc(-c4cn[nH]c4)cc3)c3ccncc3n2)c1)NC1CCC1` [Example 63, 2-(3-(4-((4-(1H-pyrazol-4-yl)phenyl)amino)pyrido[3,4-d]pyrimidin-2-yl)phenoxy)-N-cyclobutylacetamide], the half-inhibitory concentration (IC50) lay in the range of 10 to 100 nM.

Turning to `O=C(COc1cccc(-c2nc(Nc3ccc(-c4cn[nH]c4)cc3)c3ccncc3n2)c1)NC1CCCC1` [Example 64, 2-(3-(4-((4-(1H-pyrazol-4-yl)phenyl)amino)pyrido[3,4-d]pyrimidin-2-yl)phenoxy)-N-cyclopentylacetamide], the IC50 is 10 to 100 nM.

Regarding `CC(C)NC(=O)COc1cccc(-c2nc(Nc3ccc(-c4cn[nH]c4)cc3)c3ncsc3n2)c1` [Example 65, 2-(3-(7-((4-(1H-pyrazol-4-yl)phenyl)amino)thiazolo[5,4-d]pyrimidin-5-yl)phenoxy)-N-isopropylacetamide], the concentration for half-maximal inhibition (IC50) was in the range of 251 to 500 nM.

Turning to `O=C(COc1cccc(-c2nc(Nc3ccc(-c4cn[nH]c4)cc3)c3ncsc3n2)c1)NC1CCC1` [Example 66, 2-(3-(7-((4-(1H-pyrazol-4-yl)phenyl)amino)thiazolo[5,4-d]pyrimidin-5-yl)phenoxy)-N-cyclobutylacetamide], the IC50 fell in the range of 251 to 500 nM.

As for `O=C(COc1cccc(-c2nc(Nc3ccc(-c4cn[nH]c4)cc3)c3ncsc3n2)c1)NC1CCCC1` [Example 67, 2-(3-(7-((4-(1H-pyrazol-4-yl)phenyl)amino)thiazolo[5,4-d]pyrimidin-5-yl)phenoxy)-N-cyclopentylacetamide], the 50% inhibitory concentration (IC50) fell in the range of 101 to 250 nM.

`CC(C)CNC(=O)COc1cccc(-c2nc(Nc3ccc(-c4cn[nH]c4)cc3)c3ncsc3n2)c1` [Example 68, 2-(3-(7-((4-(1H-pyrazol-4-yl)phenyl)amino)thiazolo[5,4-d]pyrimidin-5-yl)phenoxy)-N-isobutylacetamide]: the half-maximal inhibitory concentration (IC50) fell in the range of 251 to 500 nM.

On to `O=C(Nc1cccc(-c2nc3c(c(Nc4ccc(-c5cn[nH]c5)cc4)n2)COC3)c1)c1cncc(Cl)c1` [Example 69, N-(3-(4-((4-(1H-pyrazol-4-yl)phenyl)amino)-5,7-dihydrofuro[3,4-d]pyrimidin-2-yl)phenyl)-5-chloronicotinamide], for which the IC50 lay in the range of 10 to 100 nM.

For `CC(C)(C)NC(=O)COc1cccc(-c2nc3c(c(Nc4ccc(-c5cn[nH]c5)cc4)n2)COC3)c1` [Example 70, 2-(3-(4-((4-(1H-pyrazol-4-yl)phenyl)amino)-5,7-dihydrofuro[3,4-d]pyrimidin-2-yl)phenoxy)-N-(tert-butyl)acetamide dihydrochloride], the IC50 was 10 to 100 nM.

For `Cc1ccc(C(=O)Nc2cccc(-c3nc4c(c(Nc5ccc(-c6cn[nH]c6)cc5)n3)COC4)c2)cn1` [Example 72, N-(3-(4-((4-(1H-pyrazol-4-yl)phenyl)amino)-5,7-dihydrofuro[3,4-d]pyrimidin-2-yl)phenyl)-6-methylnicotinamide], the half-maximal inhibitory concentration (IC50) lay in the range of 10 to 100 nM.

With `Cc1cncc(C(=O)Nc2cccc(-c3nc4c(c(Nc5ccc(-c6cn[nH]c6)cc5)n3)COC4)c2)c1` [Example 73, N-(3-(4-((4-(1H-pyrazol-4-yl)phenyl)amino)-5,7-dihydrofuro[3,4-d]pyrimidin-2-yl)phenyl)-5-methylnicotinamide], the 50% inhibitory concentration (IC50) lay within 10 to 100 nM.

With `Cc1ccncc1C(=O)Nc1cccc(-c2nc3c(c(Nc4ccc(-c5cn[nH]c5)cc4)n2)COC3)c1` [Example 74, N-(3-(4-((4-(1H-pyrazol-4-yl)phenyl)amino)-5,7-dihydrofuro[3,4-d]pyrimidin-2-yl)phenyl)-4-methylnicotinamide], the IC50 lay within 101 to 250 nM.

`O=C(Nc1cccc(-c2nc3c(c(Nc4ccc(-c5cn[nH]c5)cc4)n2)COC3)c1)c1cncc(F)c1` [Example 75, N-(3-(4-((4-(1H-pyrazol-4-yl)phenyl)amino)-5,7-dihydrofuro[3,4-d]pyrimidin-2-yl)phenyl)-5-fluoronicotinamide]: the IC50 lay in the range of 10 to 100 nM.

As for `CCC(CC)NC(=O)COc1cccc(-c2nc3c(c(Nc4ccc(-c5cn[nH]c5)cc4)n2)COC3)c1` [Example 76, 2-(3-(4-((4-(1H-pyrazol-4-yl)phenyl)amino)-5,7-dihydrofuro[3,4-d]pyrimidin-2-yl)phenoxy)-N-(pentan-3-yl)acetamide dihydrochloride], the 50% inhibitory concentration (IC50) was 10 to 100 nM.

On to `CCC(C)NC(=O)COc1cccc(-c2nc3c(c(Nc4ccc(-c5cn[nH]c5)cc4)n2)COC3)c1` (centres unmarked) [Example 77, 2-(3-(4-((4-(1H-pyrazol-4-yl)phenyl)amino)-5,7-dihydrofuro[3,4-d]pyrimidin-2-yl)phenoxy)-N-(sec-butyl)acetamide], for which the IC50 fell in the range of 10 to 100 nM.

In the case of `CC(C)CNC(=O)COc1cccc(-c2nc3c(c(Nc4ccc(-c5cn[nH]c5)cc4)n2)COC3)c1` [Example 78, 2-(3-(4-((4-(1H-pyrazol-4-yl)phenyl)amino)-5,7-dihydrofuro[3,4-d]pyrimidin-2-yl)phenoxy)-N-isobutylacetamide], the IC50 lay within 10 to 100 nM.

With `CC(C)(C)CNC(=O)COc1cccc(-c2nc3c(c(Nc4ccc(-c5cn[nH]c5)cc4)n2)COC3)c1` [Example 79, 2-(3-(4-((4-(1H-pyrazol-4-yl)phenyl)amino)-5,7-dihydrofuro[3,4-d]pyrimidin-2-yl)phenoxy)-N-neopentylacetamide], the IC50 was in the range of 10 to 100 nM.

As for `COc1cncc(C(=O)Nc2cccc(-c3nc4c(c(Nc5ccc(-c6cn[nH]c6)cc5)n3)COC4)c2)c1` [Example 80, N-(3-(4-((4-(1H-pyrazol-4-yl)phenyl)amino)-5,7-dihydrofuro[3,4-d]pyrimidin-2-yl)phenyl)-5-methoxynicotinamide], the concentration for half-maximal inhibition (IC50) is 10 to 100 nM.

As to `O=C(COc1cccc(-c2nc3c(c(Nc4ccc(-c5cn[nH]c5)cc4)n2)COC3)c1)NC1CC(F)(F)C1` [Example 82, 2-(3-(4-((4-(1H-pyrazol-4-yl)phenyl)amino)-5,7-dihydrofuro[3,4-d]pyrimidin-2-yl)phenoxy)-N-(3,3-difluorocyclobutyl)acetamide], the half-inhibitory concentration (IC50) lay in the range of 101 to 250 nM.
